Assay results: patent US20240317707A1, “COVALENT AND NON-COVALENT INHIBITORS OF CORONAVIRUS PAPAIN-LIKE PROTEASE” (UT-Battelle, LLC, priority 2023, published 2024)

Legend:
[1] = in vitro; details: African green monkey
[2] = system: SARS-CoV-2 isolate USA-WA1/2020; assay: microbe, parasite or virus in culture; type: cell-based; details: Severe acute respiratory syndrome coronavirus 2, Vero C1008, Vero E6 TMPRSS ACE2 cells, treated 1 hr with compound, MOI=0.1, 48 h; for EC50: read-out: CPE EC50; for EC90: read-out: CPE EC90

SMILES | CC50 at 48 h [1] [nM] | EC50 [2] [nM] | EC90 [2] [nM]
COC(=O)/C=C/C(=O)NNC(=O)CCc1ccccc1C(=O)NC1(c2cccc3ccccc23)CC1 [NEU-7768] | > 10000 | 22 | 250
COC(=O)/C=C/C(=O)NNC(=O)CCc1ccccc1C(=O)NC1(c2cccc3ccccc23)COC1 [NEU-7769] | > 10000 | 1500 | 3200
COC(=O)/C=C/C(=O)NNC(=O)CCc1ccccc1C(=O)N[C@H](C)c1cccc(-c2cnc(CN3CC[C@H](O)C3)s2)c1 [NEU-7770] | > 10000 | 140 | 880
COC(=O)/C=C/C(=O)NNC(=O)CCc1ccccc1C(=O)N[C@@H](c1cccc2ccccc12)C(F)(F)F [NEU-7772] | > 10000 | > 10000 | –
COC(=O)/C=C/C(=O)NNC(=O)C(F)(F)c1ccccc1C(=O)N[C@H](C)c1cccc2ccccc12 [NEU-7792] | > 10000 | 240 | 820
C[C@@H](NC(=O)c1ccccc1CCC(=O)NNC(=O)/C=C/C(=O)O)c1cccc2ccccc12 [NEU-8114] | > 10000 | 15 | 160
